ChEMBL document CHEMBL2074009, “Possible involvement of P-glycoprotein in biliary excretion of CPT-11 in rats” (Drug Metab Dispos, 1999)

Molecular target: Multidrug resistance protein 1a (Rattus norvegicus) (UniProt Q6PSM0)
Experiment: TP_TRANSPORTER: uptake (high affinity, inhibited by PSC-833, Verapamil and Cyclosporin A) in bile canalicular membrane vesicles from SD rat
Assay type: functional, cell membranes
Settings: Sprague-Dawley, Bile canalicular membrane vesicle

Sequence of Multidrug resistance protein 1a (Rattus norvegicus) (Q6PSM0 as listed by the source): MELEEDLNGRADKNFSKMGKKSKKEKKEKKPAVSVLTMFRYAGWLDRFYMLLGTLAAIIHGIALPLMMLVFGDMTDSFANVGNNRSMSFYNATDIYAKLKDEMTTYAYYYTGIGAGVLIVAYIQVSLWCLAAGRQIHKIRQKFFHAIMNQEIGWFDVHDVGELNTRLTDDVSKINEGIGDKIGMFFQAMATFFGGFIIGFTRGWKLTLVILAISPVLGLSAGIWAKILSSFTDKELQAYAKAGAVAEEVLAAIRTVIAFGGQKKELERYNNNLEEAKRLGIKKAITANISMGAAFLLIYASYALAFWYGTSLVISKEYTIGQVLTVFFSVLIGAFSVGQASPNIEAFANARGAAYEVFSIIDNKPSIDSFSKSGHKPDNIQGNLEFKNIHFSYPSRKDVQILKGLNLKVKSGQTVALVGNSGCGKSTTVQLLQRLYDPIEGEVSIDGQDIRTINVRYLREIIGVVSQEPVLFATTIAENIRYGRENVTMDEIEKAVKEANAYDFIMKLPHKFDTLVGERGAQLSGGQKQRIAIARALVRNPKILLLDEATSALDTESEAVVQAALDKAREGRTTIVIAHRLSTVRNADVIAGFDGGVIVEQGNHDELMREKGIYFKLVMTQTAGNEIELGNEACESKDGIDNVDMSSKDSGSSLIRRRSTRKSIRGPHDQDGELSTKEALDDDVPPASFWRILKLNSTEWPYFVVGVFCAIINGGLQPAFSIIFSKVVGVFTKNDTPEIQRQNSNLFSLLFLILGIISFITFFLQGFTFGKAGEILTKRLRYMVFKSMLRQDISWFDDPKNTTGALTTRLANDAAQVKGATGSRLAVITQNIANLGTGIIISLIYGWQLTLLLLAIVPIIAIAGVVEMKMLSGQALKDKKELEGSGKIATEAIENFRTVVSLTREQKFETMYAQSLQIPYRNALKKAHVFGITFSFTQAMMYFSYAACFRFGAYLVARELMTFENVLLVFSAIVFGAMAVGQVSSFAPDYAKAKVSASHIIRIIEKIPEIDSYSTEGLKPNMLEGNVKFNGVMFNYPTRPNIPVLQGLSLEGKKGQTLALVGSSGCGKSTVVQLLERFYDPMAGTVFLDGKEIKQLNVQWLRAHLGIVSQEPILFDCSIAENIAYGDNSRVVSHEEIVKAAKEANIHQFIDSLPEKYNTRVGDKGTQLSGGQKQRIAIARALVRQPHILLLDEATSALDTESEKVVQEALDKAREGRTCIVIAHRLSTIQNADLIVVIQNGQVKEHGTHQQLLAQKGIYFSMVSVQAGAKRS

In the case of `CCc1c2c(nc3ccc(OC(=O)N4CCC(N5CCCCC5)CC4)cc13)-c1cc([C@@](O)(CC)C(=O)O)c(CO)c(=O)n1C2`, the Activity is reported as “substrate [+]”.
